Test system: C2C12 myotubes
Assay: In vitro puromycin incorporation (muscle protein synthesis) in differentiated C2C12 myotubes stimulated with insulin + leucine, Western blot
Type: cell-based, mouse
Experimental: C2C12 mouse myoblasts are obtained from the American Type Culture Source Collection (no. CRL-1772). Myoblasts are cultured at 37° C. in an atmosphere of 5% CO2 in grown medium consisting of Dulbecco's modified Eagle's medium (DMEM) supplemented with 10% fetal calf serum and antibiotics. Myotube C2C12 differentiation is induced by withdrawing fetal calf serum from confluent cells and adding 10 μg/ml insulin, 5 μg/ml transferrin and 2% horse serum. 8-days-differentiated C2C12 myotubes are treated with medium containing EPA and/or MA for 16 hours. After a 4-hour starvation period, C2C12 myotubes were treated with insulin (100 nM)+Leucine (5 mM) for in total 60 min. A limitation of growing myotubes in vitro is that the cells are not able to produce insulin when administered leucine whereas in vivo the pancreas starts producing insulin when leucine is administered to a subject. Common to this model, to compensate for this limitation, the in vitro experiment requires the separate administration of insulin. […] By western-Blot analyses the level of protein synthesis was analyzed. This gives quantitative information on the incorporation of puromycin which is a measure for intracellular pathways regulating protein synthesis (Akt, mTOR) and/or a direct measure of protein synthesis. […]

SMILES: CCCCCCCCCCCCCC(=O)O [MA, myristic acid]
- puromycin incorporation, individual fatty acid (25 μM EPA without MA, or 25 or 50 μM MA without EPA, 16 hours, then insulin (100 nM)+Leucine (5 mM) 60 min, relative to control without stimulation and without fatty acids (indexed at 100)): have an effect on puromycin incorporation
- puromycin incorporation, effect of raising MA from 25 μM to 50 μM vs adding 25 μM EPA to 25 μM MA (MA without EPA, 25 μM vs 50 μM, insulin + leucine stimulation): much smaller effect

From patent US20220288002A1, “Composition comprising EPA, MA and leucine for improving muscle function” (N.V. Nutricia, priority 2019, published 2022)
